Test results taken from patent US8802865B2 (Janssen Pharmaceutica, NV, priority 2006, dated 2014).

Experiments:
ventral prostate = experiment: Ventral Prostate Weight in vivo Assay (inhibition of testosterone-enhanced tissue weight); design: key: “active” in the Table below if the non weight adjusted prostate weight was ≦40 mg or the % Inhibition prostate weight, body weight adjusted was ≧40% @ 2 mg/day dosage; listed herein as “inactive” as they did not meet the specified criteria defined above; settings: castrated male Sprague Dawley rats, test compound usually orally once daily with testosterone propionate s.c.; ventral prostate wet weight; criteria at 2 mg/day dosage
Description: (§1) Ventral Prostate and Levator Ani Weight in vivo Assay
(§2) Immature (approximately 50 g) castrated male Sprague Dawley rats (Charles River) were treated once daily for five days with test compound (usually given orally at 40 mg/kg in a volume of 0.3 mL, in 30% cyclodextrin or 0.5% methylcellulose vehicle) and with testosterone propionate (given subcutaneously by injection at the nape of the neck at 2 mg/kg, in a volume of 0.1 mL in sesame oil). On the sixth day, the rats were euthanized by asphyxiation in carbon dioxide. Ventral prostates and levator ani were removed and their wet weights determined. Test compound activity was determined as the percent inhibition of testosterone-enhanced tissue weights, with a vehicle-treated control group set to zero percent and a testosterone alone-treated control group set to 100%.
(§3) Mature (150- to 200-g) castrated male Sprague Dawley rats (Charles River) are similarly tested according to the procedure described above. The rats were dosed for two weeks, with 0.4 mg/kg testosterone propionate used as the positive control.
(§4) Representative compounds of the present invention were tested according to the procedure described above, with results as listed in Table 3 below. For effect on prostate—i.e. an antagonist—a test compound is listed as “active” in the Table below if the non weight adjusted prostate weight was ≦40 mg or the % Inhibition prostate weight, body weight adjusted was ≧40% @ 2 mg/day dosage. For effect on levator ani—i.e. an agonist—a test compound is listed as “active” in the Table below if the non weight adjusted levator ani weight was ≧40 mg or the % Stimulation levator ani weight, body weight adjusted was ≧40% at 2 mg/day dosage.

levator ani = experiment: Levator Ani Weight in vivo Assay (stimulation of levator ani weight); design: key: “active” in the Table below if the non weight adjusted prostate weight was ≦40 mg or the % Inhibition prostate weight, body weight adjusted was ≧40% @ 2 mg/day dosage; listed herein as “inactive” as they did not meet the specified criteria defined above; settings: castrated male Sprague Dawley rats, test compound usually orally once daily with testosterone propionate s.c.; levator ani wet weight; criteria at 2 mg/day dosage
Description: as §1, §2, §3, §4

Structure (SMILES)	Prostate antagonist (ventral prostate)	L.A. agonist (levator ani)
C=C(C)C(O)(c1nc2cc(Cl)c(Cl)cc2[nH]1)C(F)(F)F (stereo not shown) [Compound 9, 2-(5,6-Dichloro-1H-benzoimidazol-2-yl)-1,1,1-trifluoro-3-methyl-but-3-en-2-ol]	active	inactive
C=CC(c1ccccc1)C(O)(c1nc2cc(Cl)c(Cl)cc2[nH]1)C(F)(F)F (stereo not shown) [Compound 28, 2-(5,6-Dichloro-1H-benzoimidazol-2-yl)-1,1,1-trifluoro-3-phenyl-pent-4-en-2-ol]	active	inactive
C/C=C/C(O)(c1nc2cc(Cl)c(Cl)cc2[nH]1)C(F)(F)F (stereo not drawn) [Compound 16, 2-(5,6-Dichloro-1H-benzoimidazol-2-yl)-1,1,1-trifluoro-trans-pent-3-en-2-ol]	active	inactive
Cn1c(C2(C(F)(F)F)OCCO2)nc2cc(Cl)c(Cl)cc21 [Compound 52, 5,6-Dichloro-1-methyl-2-(2-trifluoromethyl-[1,3]dioxolan-2-yl)-1H-benzoimidazole]	inactive	
C=C(CC(O)(c1nc2cc(Cl)c(Cl)cc2[nH]1)C(F)(F)F)C(=O)O (stereo not shown) [Compound 27, 2-[2-(5,6-Dichloro-1H-benzoimidazol-2-yl)-3,3,3-trifluoro-2-hydroxy-propyl]-acrylic acid]	inactive	inactive
CCn1c(C2(C(F)(F)F)OCCO2)nc2cc(Cl)c(Cl)cc21 [Compound 56, 5,6-Dichloro-1-ethyl-2-(2-trifluoromethyl-[1,3]dioxolan-2-yl)-1H-benzoimidazole]	active	
C#CCC(O)(c1nc2cc(Cl)c(Cl)cc2n1C)C(F)(F)F (single isomer, unassigned; (+)) [Compound 36, (+)-Enantiomer of 2-(5,6-Dichloro-1-methyl-1H-benzoimidazol-2-yl)-1,1,1-trifluoro-pent-4-yn-2-ol]	inactive	inactive
C=C(C)CC(O)(c1nc2cc(Cl)c(Cl)cc2[nH]1)C(F)(F)F (stereo not shown) [Compound 13, 2-(5,6-Dichloro-1H-benzoimidazol-2-yl)-1,1,1-trifluoro-4-methyl-pent-4-en-2-ol]	active	inactive
FC(F)(F)C1(c2nc3cc(Cl)c(Cl)cc3[nH]2)OCCCO1 [Compound 51, 5,6-Dichloro-2-(2-trifluoromethyl-[1,3]dioxan-2-yl)-1H-benzimidazole]	active	inactive
C=C=C(C)C(O)(c1nc2cc(C#N)c(C(F)(F)F)cc2[nH]1)C(F)(F)F (stereo not shown) [Compound 41, 2-(1-Hydroxy-2-methyl-1-trifluoromethyl-buta-2,3-dienyl)-6-trifluoromethyl-1H-benzoimidazole-5-carbonitrile]	active	inactive
FC(F)(F)C1(c2nc3cc(Cl)c(Cl)cc3[nH]2)NCCN1 [Compound 60, 5,6-Dichloro-2-(2-trifluoromethyl-imidazolidin-2-yl)-1H-benzimidazole]	active	
C=CCCC(O)(c1nc2cc(Cl)c(Cl)cc2[nH]1)C(F)(F)F (stereo not shown) [Compound 40, 2-(5,6-Dichloro-1H-benzoimidazol-2-yl)-1,1,1-trifluoro-hex-5-en-2-ol]	active	
CC(C)=CC(O)(c1nc2cc(Cl)c(Cl)cc2[nH]1)C(F)(F)F (stereo not shown) [Compound 14, 2-(5,6-Dichloro-1H-benzoimidazol-2-yl)-1,1,1-trifluoro-4-methyl-pent-3-en-2-ol]	active	inactive
OCC#CC(O)(c1nc2cc(Cl)c(Cl)cc2[nH]1)C(F)(F)F (stereo not shown) [Compound 17, 4-(5,6-Dichloro-1H-benzoimidazol-2-yl)-5,5,5-trifluoro-pent-2-yne-1,4-diol]	active	inactive
OC(c1ccccc1)(c1nc2cc(Cl)c(Cl)cc2[nH]1)C(F)(F)F (stereo not shown) [Compound 10, 1-(5,6-Dichloro-1H-benzoimidazol-2-yl)-2,2,2-trifluoro-1-phenyl-ethanol]	active	inactive
CC(C)=C(C)C(O)(c1nc2cc(Cl)c(Cl)cc2[nH]1)C(F)(F)F (stereo not shown) [Compound 42, 2-(5,6-Dichloro-1H-benzoimidazol-2-yl)-1,1,1-trifluoro-3,4-dimethyl-pent-3-en-2-ol]	active	inactive

Structure (SMILES)	Prostate antagonist (ventral prostate)	L.A. agonist (levator ani)
FC(F)(F)C1(c2nc3cc(Cl)c(Cl)cc3[nH]2)NCCO1 (stereo not shown) [Compound 61, 5,6-Dichloro-2-(2-trifluoromethyl-oxazolidin-2-yl)-1H-benzimidazole]	active	inactive
COC(=O)Cn1c(C2(C(F)(F)F)OCCO2)nc2cc(Cl)c(Cl)cc21 [Compound 57, [5,6-Dichloro-2-(2-trifluoromethyl-[1,3]dioxolan-2-yl)-benzoimidazol-1-yl]-acetic acid methyl ester]	inactive	
OCC1COC(c2nc3cc(Cl)c(Cl)cc3[nH]2)(C(F)(F)F)O1 (stereo not shown) [Compound 49, [2-(5,6-Dichloro-1H-benzoimidazol-2-yl)-2-trifluoromethyl-[1,3]dioxolan-4-yl]-methanol]	active	inactive
C=CC(C)C(O)(c1nc2cc(Cl)c(Cl)cc2[nH]1)C(F)(F)F (stereo not shown) [Compound 26]	active	inactive
N#CCn1c(C2(C(F)(F)F)OCCO2)nc2cc(Cl)c(Cl)cc21 [Compound 53, [5,6-Dichloro-2-(2-trifluoromethyl-[1,3]dioxolan-2-yl)-benzoimidazol-1-yl]-acetonitrile]	active	
N#Cc1cc2nc(C3(C(F)(F)F)OCCO3)[nH]c2cc1C(F)(F)F [Compound 59, 6-Trifluoromethyl-2-(2-trifluoromethyl-[1,3]dioxolan-2-yl)-1H-benzimidazole-5-carbonitrile]	active	inactive
CC#CC(O)(c1nc2cc(Cl)c(Cl)cc2[nH]1)C(F)(F)F (stereo not shown) [Compound 8, 2-(5,6-Dichloro-1H-benzoimidazol-2-yl)-1,1,1-trifluoro-pent-3-yn-2-ol]	active	inactive
C=CC(C)(C)C(O)(c1nc2cc(Cl)c(Cl)cc2[nH]1)C(F)(F)F (stereo not shown) [Compound 25, 2-(5,6-Dichloro-1H-benzoimidazol-2-yl)-1,1,1-trifluoro-3,3-dimethyl-pent-4-en-2-ol]	active	inactive
FC(F)(F)C1(c2nc3cc(Cl)c(Cl)cc3n2Cc2ccccn2)OCCO1 [Compound 48]	inactive	inactive
FC(F)(F)C1(c2nc3cc(Cl)c(Cl)cc3[nH]2)OCC(CCl)O1 (stereo not shown) [Compound 50, 5,6-Dichloro-2-(4-chloromethyl-2-trifluoromethyl-[1,3]dioxolan-2-yl)-1H-benzimidazole]	active	
C#CCn1c(C2(C(F)(F)F)OCCO2)nc2cc(Cl)c(Cl)cc21 [Compound 54, 5,6-Dichloro-1-prop-2-ynyl-2-(2-trifluoromethyl-[1,3]dioxolan-2-yl)-1H-benzoimidazole]	active	
C=CCn1c(C2(C(F)(F)F)OCCO2)nc2cc(Cl)c(Cl)cc21 [Compound 55, 1-Allyl-5,6-dichloro-2-(2-trifluoromethyl-[1,3]dioxolan-2-yl)-1H-benzoimidazole]	active	
C#CCC(O)(c1nc2cc(Cl)c(Cl)cc2n1C)C(F)(F)F (stereo not shown) [Compound 35, 2-(5,6-Dichloro-1-methyl-1H-benzoimidazol-2-yl)-1,1,1-trifluoro-pent-4-yn-2-ol]	inactive	
C=CCC(O)(c1nc2cc(Cl)c(Cl)cc2[nH]1)C(F)(F)F (single isomer, unassigned; (+)) [Compound 23, (+)-Enantiomer of 2-(5,6-Dichloro-1H-benzoimidazol-2-yl)-1,1,1-trifluoro-pent-4-en-2-ol]	active	inactive
C=C=C(CC)C(O)(c1nc2cc(Cl)c(Cl)cc2[nH]1)C(F)(F)F (stereo not shown) [Compound 62, 2-(5,6-Dichloro-1H-benzoimidazol-2-yl)-3-ethyl-1,1,1-trifluoro-penta-3,4-dien-2-ol]	active	
FC(F)(F)C1(c2nc3cc(Cl)c(Cl)cc3[nH]2)OCCO1 [Compound 47, 5,6-Dichloro-2-(2-trifluoromethyl-[1,3]dioxolan-2-yl)-1H-benzimidazole]	active	
